Assay results: US10106534B2 (CELGENE QUANTICEL RESEARCH, INC., priority 2014, dated 2018)

Tests used:
[1] = tested on: KYSE-150 esophageal carcinoma cell line; experiment: In vitro cell-based assay: cellular proliferation via BrdU incorporation (ELISA); design: species or system human; conditions: Homo sapiens, KYSE-150, 168 hours compound incubation
Summary of the method: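 BrdU incorporation during S-phase, detected colorimetrically at 450 nm by peroxidase ELISA, measured proliferation after 168 h compound exposure.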

JMJD3 = JMJD3 (Homo sapiens, UniProt O15054); experiment: In vitro enzyme inhibition assay for JMJD3 activity (TR-FRET); format: biochemical
Procedure: This assay determines the ability of a test compound to inhibit JMJD3 demethylase activity.
The enzymatic assay of JMJD3 activity is based upon Time Resolved-Fluorescence Resonance Energy Transfer (TR-FRET) detection. […] Reaction product was determined quantitatively by TR-FRET after the addition of detection reagent Phycolink Streptavidin-allophycocyanin (Prozyme) and Europium-anti-di-methylated histone H3 lysine 27 (H3K27me2) antibody (PerkinElmer) in the presence of 5 mM EDTA in LANCE detection buffer (PerkinElmer) at a final concentration of 50 nM and 1 nM, respectively.
The reaction mixture was incubated at room temperature for 30 minutes, and terminated by the addition of 6 μL of 5 mM EDTA in LANCE detection buffer containing 100 nM Phycolink Streptavidin-allophycocyanin and 2 nM Europium-anti-H3K27me2 antibody.

JMJD2C = JMJD2C (Homo sapiens (Human), UniProt Q9H3R0); experiment: In vitro enzyme inhibition assay for JMJD2C activity (TR-FRET); format: biochemical
Sequence of JMJD2C (Q9H3R0 2-372): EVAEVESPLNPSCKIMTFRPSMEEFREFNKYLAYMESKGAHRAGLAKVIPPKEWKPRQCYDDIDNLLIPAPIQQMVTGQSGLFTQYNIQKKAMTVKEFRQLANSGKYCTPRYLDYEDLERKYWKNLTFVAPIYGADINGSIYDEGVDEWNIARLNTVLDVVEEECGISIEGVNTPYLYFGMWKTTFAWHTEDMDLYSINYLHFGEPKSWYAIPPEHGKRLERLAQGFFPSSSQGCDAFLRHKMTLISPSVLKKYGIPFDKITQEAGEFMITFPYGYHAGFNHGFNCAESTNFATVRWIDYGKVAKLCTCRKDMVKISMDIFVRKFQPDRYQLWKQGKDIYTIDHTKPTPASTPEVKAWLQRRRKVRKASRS
Summary of the method: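 Demethylation product H3K9me2 quantified by TR-FRET ratio 665/615 after EDTA stop and 1 h with Eu-anti-H3K9me2 and streptavidin-APC; IC50 by curve fit. Reaction: 0.3 nM JMJD2C (AA 2-372, baculovirus), 2 μM α-ketoglutarate, 300 nM biotin-H3K9me3 peptide, pH 7.3 HEPES with Fe(II)/ascorbate, 30 min room temperature.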

Row | SMILES | IC50 [1] [nM] | IC50 (JMJD3) [nM] | IC50 (JMJD2C) [nM]
1 | CN(c1ccc2c(c1)CCC[C@H]2CNc1cnccc1C(=O)O)c1ccccn1 [Example 11, 3-({[(1R)-6-[methyl(pyridin-2-yl)amino]-1,2,3,4-tetrahydronaphthalen-1-yl]methyl}amino)pyridine-4-carboxylic acid] | ≤ 100 | 1000 to 10000 | 100 to 1000
2 | O=C(O)c1ccncc1NCC1CCOc2cc(N3CCCc4ccccc43)ccc21 (stereo not drawn) [Example 16, 3-({[7-(1,2,3,4-tetrahydroquinolin-1-yl)-3,4-dihydro-2H-1-benzopyran-4-yl]methyl}amino)pyridine-4-carboxylic acid] | 100 to 1000 | 1000 to 10000 | 100 to 1000
3 | O=C(O)c1ccncc1NCC1CCOc2cc(N3CCc4ccccc43)ccc21 (stereo not drawn) [Example 17, 3-({[7-(2,3-dihydro-1H-indol-1-yl)-3,4-dihydro-2H-1-benzopyran-4-yl]methyl}amino)pyridine-4-carboxylic acid] | 100 to 1000 | 1000 to 10000 | 100 to 1000
4 | CN(c1ccccc1)c1ccc2c(c1)OCC[C@H]2CNc1cnccc1C(=O)O [Example 18, 3-({[(4R)-7-[methyl(phenyl)amino]-3,4-dihydro-2H-1-benzopyran-4-yl]methyl}amino)pyridine-4-carboxylic acid] | ≤ 100 | 100 to 1000 | 100 to 1000
5 | CN(c1cccc(F)c1)c1ccc2c(c1)OCC[C@H]2CNc1cnccc1C(=O)O [Example 20, 3-({[(4R)-7-[(3-fluorophenyl)(methyl)amino]-3,4-dihydro-2H-1-benzopyran-4-yl]methyl}amino)pyridine-4-carboxylic acid] | ≤ 100 | 1000 to 10000 | 100 to 1000
6 | CN(c1ccc(F)cc1)c1ccc2c(c1)OCC[C@H]2CNc1cnccc1C(=O)O [Example 21, 3-({[(4R)-7-[(4-fluorophenyl)(methyl)amino]-3,4-dihydro-2H-1-benzopyran-4-yl]methyl}amino)pyridine-4-carboxylic acid] | ≤ 100 | 1000 to 10000 | 100 to 1000
7 | Cc1sccc1-c1ccc2c(c1)OCC[C@@H]2CNc1cnccc1C(=O)O [Example 36, 3-({[(4S)-7-(2-methylthiophen-3-yl)-3,4-dihydro-2H-1-benzopyran-4-yl]methyl}amino)pyridine-4-carboxylic acid] | – | 100 to 1000 | 1000 to 10000
8 | O=C(O)c1ccncc1NC[C@H]1CCOc2cc(-c3ccccc3Cl)ccc21 [Example 39, 3-({[(4S)-7-(2-chlorophenyl)-3,4-dihydro-2H-1-benzopyran-4-yl]methyl}amino)pyridine-4-carboxylic acid] | – | 100 to 1000 | 1000 to 10000
9 | O=C(O)c1ccncc1NC[C@H]1CCOc2cc(Sc3cccc(F)c3)ccc21 [Example 52, 3-({[(4S)-7-[(3-fluorophenyl)sulfanyl]-3,4-dihydro-2H-1-benzopyran-4-yl]methyl}amino)pyridine-4-carboxylic acid] | – | 100 to 1000 | 1000 to 10000
10 | O=C(O)c1ccncc1NC[C@H]1CCOc2cc(Sc3ccc(F)cc3)ccc21 [Example 54, 3-({[(4S)-7-[(4-fluorophenyl)sulfanyl]-3,4-dihydro-2H-1-benzopyran-4-yl]methyl}amino)pyridine-4-carboxylic acid] | – | 100 to 1000 | 1000 to 10000
11 | O=C(O)c1ccncc1NC[C@@H]1CCOc2cc(-c3ccccc3O)ccc21 [Example 138, 3-({[(4R)-7-(2-hydroxyphenyl)-3,4-dihydro-2H-1-benzopyran-4-yl]methyl}amino)pyridine-4-carboxylic acid] | – | 1000 to 10000 | 100 to 1000
12 | CN(c1ccc(OC(F)(F)F)cc1)c1ccc2c(c1)OCC[C@H]2CNc1cnccc1C(=O)O [Example 182, 3-({[(4R)-7-{methyl[4-(trifluoromethoxy)phenyl]amino}-3,4-dihydro-2H-1-benzopyran-4-yl]methyl}amino)pyridine-4-carboxylic acid] | – | 1000 to 10000 | 100 to 1000
